Test results reported in patent US8349824B2, “Triazolopyridine compounds” (Hoffmann-La Roche Inc., priority 2010, dated 2013).

Tests used:
human PDE10A full length = target: T1, human PDE10A full length (Homo sapiens, UniProt Q9Y233); experiment: PDE10A Scintillation Proximity Assay (SPA), human PDE10A full length assay; format: biochemical; settings: 50 nM cGMP + 50 nM [3H]-cGMP, 20 minutes at room temperature, read-out: PDE10A inhibition IC50
T1 construct: purchased Enzo Life Science, Lausen, Switzerland SE-534
T1 sequence (Q9Y233 1-779 isoform Q9Y233-1): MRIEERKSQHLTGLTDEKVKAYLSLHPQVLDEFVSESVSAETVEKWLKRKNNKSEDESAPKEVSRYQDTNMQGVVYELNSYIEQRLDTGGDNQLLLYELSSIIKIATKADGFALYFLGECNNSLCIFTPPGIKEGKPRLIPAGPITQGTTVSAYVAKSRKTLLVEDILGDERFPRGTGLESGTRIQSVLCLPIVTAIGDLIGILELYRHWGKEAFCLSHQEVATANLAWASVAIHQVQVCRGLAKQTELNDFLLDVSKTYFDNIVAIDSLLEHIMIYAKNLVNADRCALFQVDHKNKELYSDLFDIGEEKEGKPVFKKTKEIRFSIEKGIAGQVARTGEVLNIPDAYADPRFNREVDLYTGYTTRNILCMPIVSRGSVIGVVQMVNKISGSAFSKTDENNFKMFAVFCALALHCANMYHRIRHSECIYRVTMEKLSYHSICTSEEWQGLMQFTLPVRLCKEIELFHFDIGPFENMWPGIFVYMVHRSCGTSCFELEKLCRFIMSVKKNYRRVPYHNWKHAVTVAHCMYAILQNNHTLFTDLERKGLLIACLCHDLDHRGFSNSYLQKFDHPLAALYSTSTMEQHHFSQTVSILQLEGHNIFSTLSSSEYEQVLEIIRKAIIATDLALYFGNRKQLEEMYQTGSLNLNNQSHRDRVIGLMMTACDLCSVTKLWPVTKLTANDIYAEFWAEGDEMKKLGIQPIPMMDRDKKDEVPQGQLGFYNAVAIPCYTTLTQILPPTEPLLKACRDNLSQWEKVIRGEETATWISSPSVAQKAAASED
Procedure: The following test was carried out in order to determine the activity of the compounds of the present invention. PDE10 activity of the compounds of the present invention was determined using a Scintillation Proximity Assay (SPA)-based method similar to the one previously described (Fawcett, L. et al., Proc Natl Acad Sci USA (2000) 97(7):3702-3707).
The human PDE10A full length assay was performed in 96-well micro titer plates. The reaction mixture of 50 μl contained 20 mM HEPES pH=7.5/10 mM MgCl2/0.05 mg/ml BSA (Sigma cat. #A-7906), 50 nM cGMP (Sigma, cat. #G6129) and 50 nM [^3H]-cGMP (GE Healthcare, cat. #TRK392 S.A. 13.2Ci/mmol), 3.75 ng/well PDE10A enzyme (Enzo Life Science, Lausen, Switzerland cat #SE-534) with or without a specific test compound. A range of concentrations of the potential inhibitor was used to generate data for calculating the concentration of inhibitor resulting in 50% of the effect (e.g. IC50, the concentration of the competitor inhibiting PDE10A activity by 50%). Non-specific activity was tested without the enzyme. The reaction was initiated by the addition of the substrate solution (cGMP and [^3H]-cGMP) and allowed to progress for 20 minutes at room temperature. The reaction was terminated by adding 25 μl of YSi-SPA scintillation beads (GE Healthcare, cat. #RPNQ0150) in 18 mM zinc sulphate solution (stop reagent). After 1 h under shaking, the plate was centrifuged one minute at 170 g to allow beads to settle. Afterwards, radioactive counts were measured on a Perkin Elmer TopCount Scintillation plate reader.

Compound	IC50 (human PDE10A full length) [nM]	melting point [°C]
Cn1ncc(C(=O)N2C[C@H]3C[C@@H]2CO3)c1C(=O)Nc1ccn2nc(-c3cccnc3)nc2c1 (stereo in doubt) [Example 57, 2-Methyl-4-((1R,4R)-2-oxa-5-aza-bicyclo[2.2.1]heptane-5-carbonyl)-2H-pyrazole-3-carboxylic acid (2-pyridin-3-yl-[1,2,4]triazolo[1,5-a]pyridin-7-yl)-amide]	51.9	272 to 273
COC(=O)c1cnn(C)c1C(=O)Nc1ccn2nc(-c3ccccc3)nc2c1 [Example 1, methyl 1-methyl-5-(2-phenyl-[1,2,4]triazolo[1,5-a]pyridin-7-ylcarbamoyl)-1H-pyrazole-4-carboxylate]	14.6	243 to 247
Cn1ncc(C(=O)O)c1C(=O)Nc1ccn2nc(-c3ccccc3)nc2c1 [Example 2, 1-Methyl-5-(2-phenyl-[1,2,4]triazolo[1,5-a]pyridin-7-ylcarbamoyl)-1H-pyrazole-4-carboxylic acid]	24.9	> 300
Cn1ncc(C(=O)N2CCC2)c1C(=O)Nc1ccn2nc(-c3ccccc3)nc2c1 [Example 3, 4-(Azetidine-1-carbonyl)-2-methyl-2H-pyrazole-3-carboxylic acid (2-phenyl-[1,2,4]triazolo[1,5-a]pyridin-7-yl)-amide]	0.71	243 to 245
COCCN(C)C(=O)c1cnn(C)c1C(=O)Nc1ccn2nc(-c3ccccc3)nc2c1 [Example 4, N4-(2-methoxyethyl)-N4,1-dimethyl-N5-(2-phenyl-[1,2,4]triazolo[1,5-a]pyridin-7-yl)-1H-pyrazole-4,5-dicarboxamide]	0.28	172 to 175
CCN(C)C(=O)c1cnn(C)c1C(=O)Nc1ccn2nc(-c3ccccc3)nc2c1 [Example 5, N4-ethyl-N4,1-dimethyl-N5-(2-phenyl-[1,2,4]triazolo[1,5-a]pyridin-7-yl)-1H-pyrazole-4,5-dicarboxamide]	0.5	193 to 194
CN(c1nc2cc(NC(=O)c3c(C(=O)N4CCOCC4)cnn3C)ccn2n1)C1CC1 [Example 128, 2-Methyl-4-(morpholine-4-carbonyl)-2H-pyrazole-3-carboxylic acid [2-(cyclopropyl-methyl-amino)-[1,2,4]triazolo[1,5-a]pyridine-7-yl]-amide]	3.37	
Cn1ncc(C(=O)N2CCN3CCC2C3)c1C(=O)Nc1ccn2nc(-c3ccccc3)nc2c1 (stereo not drawn) [Example 129, 4-(1,4-Diaza-bicyclo[3.2.1]octane-4-carbonyl)-2-methyl-2H-pyrazole-3-carboxylic acid (2-phenyl-[1,2,4]triazolo[1,5-a]pyridin-7-yl)-amide]	1.1	
Cn1ncc(C(=O)N2CCC2)c1C(=O)Nc1ccn2nc(-c3ccccc3OCCF)nc2c1 [Example 130, 4-(Azetidine-1-carbonyl)-2-methyl-2H-pyrazole-3-carboxylic acid {2-[2-(2-fluoro-ethoxy)-phenyl]-[1,2,4]triazolo[1,5-a]pyridin-7-yl}-amide]	0.34	
Cn1ncc(C(=O)N2CCOCC2)c1C(=O)Nc1ccn2nc(-c3ccccc3OCCF)nc2c1 [Example 131, 2-Methyl-4-(morpholine-4-carbonyl)-2H-pyrazole-3-carboxylic acid {2-[2-(2-fluoro-ethoxy)-phenyl]-[1,2,4]triazolo[1,5-a]pyridin-7-yl}-amide]	0.9	
COCCN(C)C(=O)c1cnn(C)c1C(=O)Nc1ccn2nc(-c3ccccc3OCCF)nc2c1 [Example 132, 2-Methyl-2H-pyrazole-3,4-dicarboxylic acid 3-({2-[2-(2-fluoro-ethoxy)-phenyl]-[1,2,4]triazolo[1,5-a]pyridin-7-yl}-amide) 4-[(2-methoxy-ethyl)-methyl-amide]]	1.02	
Cn1ncc(C(=O)N2CCOCC2)c1C(=O)Nc1ccn2nc(N3CCCC3=O)nc2c1 [Example 133, Methyl-4-(morpholine-4-carbonyl)-N-(2-(2-oxopyrrolidin-1-yl)-[1,2,4]triazolo[1,5-a]pyridin-7-yl)-1H-pyrazole-5-carboxamide]	16.1	
